{"source": "patent US4499082A", "about": "“α-Aminoboronic acid peptides” (E. I. Du Pont de Nemours and Company, priority 1983, dated 1985)", "key": {"chymotrypsin": {"biological_target": "chymotrypsin (Bos taurus, UniProt P00766)", "conditions": "Matteson et al.; cited from earlier work"}, "Bovine α-chymotrypsin": {"biological_target": "T1, Bovine α-chymotrypsin (Bos taurus, UniProt P00766)", "T1 construct": "purchased", "experiment": "Inhibition of α-chymotrypsin", "type": "biochemical", "conditions": "inhibitor 100 nM; N.T (no detectable time dependence)", "experimental": "Bovine α-chymotrypsin, obtained from commercial sources, was used to prepare stock solutions. […] Reactions were initiated by the addition of 0.040 μg of enzyme and increases in absorbance were monitored spectrophotometrically at 405 nm at 25°."}, "[1]": {"biological_target": "Porcine pancreatic elastase (Sus scrofa, UniProt P00772)", "sequence (P00772 27-266)": "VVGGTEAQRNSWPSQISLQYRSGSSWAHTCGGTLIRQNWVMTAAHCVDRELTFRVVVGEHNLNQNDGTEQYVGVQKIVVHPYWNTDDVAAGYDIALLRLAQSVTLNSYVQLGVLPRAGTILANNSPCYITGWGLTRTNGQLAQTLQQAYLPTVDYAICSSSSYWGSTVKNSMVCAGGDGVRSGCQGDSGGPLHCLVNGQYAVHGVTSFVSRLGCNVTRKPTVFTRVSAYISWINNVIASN", "experiment": "Inhibition of pancreatic elastase", "type": "biochemical", "conditions": "inhibitor 5 × 10^4 nM", "experimental": "Porcine pancreatic elastase (9.8 U/mg.) was obtained from commercial sources. […] Reactions were initiated by addition of 0.5 μg of elastase in 0.020 mL of 0.020M sodium acetate buffer, pH 6.0, and hydrolysis of substrate was monitored spectrophotometrically at 405 nm at 25° C. Assay results are set forth in Table 4, below, expressed as percentages of activity of control mixtures to which no inhibitor was added: […]"}, "neutrophil elastase [2]": {"biological_target": "T2, neutrophil elastase (Homo sapiens, UniProt P08246)", "T2 sequence (P08246 30-267)": "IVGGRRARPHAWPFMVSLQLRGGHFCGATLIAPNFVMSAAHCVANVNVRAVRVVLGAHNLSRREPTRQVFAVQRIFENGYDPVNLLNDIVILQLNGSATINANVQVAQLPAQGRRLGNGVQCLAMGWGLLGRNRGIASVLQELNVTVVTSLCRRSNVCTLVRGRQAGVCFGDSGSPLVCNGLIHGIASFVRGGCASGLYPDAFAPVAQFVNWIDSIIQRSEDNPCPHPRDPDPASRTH", "experiment": "Inhibition of neutrophil elastase (Table 2)", "type": "biochemical", "design": "Neutrophil elastase was prepared by the procedure described by Baugh. et al; from tissue", "conditions": "inhibitor 5,000 nM", "experimental": "Neutrophil elastase was prepared by the procedure described by Baugh. et al., Biochemistry 15:836 […]. Enzyme assays were conducted substantially according to the procedure disclosed by Nakajima, et al., J. Biol. […] Inhibitors were evaluated by comparing enzymatic activity measured in the presence and absence of inhibitor."}, "[3]": {"conditions": "plasma incubated at 4°", "quoted_text": "The stability of inhibitory capacity provided by MeOSuc-AlaAlaPro-Boroval-OH in plasma was determined by incubating samples of plasma containing inhibitor at 4° for 24 hours, followed by assays for inhibitory capacity conducted as above."}, "neutrophil elastase [4]": {"biological_target": "T2, neutrophil elastase", "experiment": "Kinetic constants for interaction with human neutrophil elastase (Table 1)", "type": "biochemical", "design": "Neutrophil elastase was prepared by the procedure described by Baugh. et al; from tissue", "experimental": "A more extensive evaluation of the kinetic constants for interaction of human neutrophil elastase with MeOSuc-AlaAlaPro-Boroval-OH were determined by methods substantially similar to those disclosed by Schloss, et al., Biochemistry 19:2358 (1980), who describe the following equation describing reversible, tight binding inhibition: [drawing 13]\nAs determined herein, Ki (initial)=k2 /k1; Ki (final)=(k2 /k1)k4 /(k3 +k4); and […]; E=[Enzyme]; I=[inhibitor]; EI and EI*=[enzyme-inhibitor complexes].\nKi (initial) was determined from initial velocity studies, according to the method of Lineweaver and Burk. Substrate concentration was varied from 0.80-0.04 mM, and concentration of inhibitor (MeOSuc-AlaAlaPro-Boroval-OH) was 200 nM. Observed inhibition appeared to be competitive, since double reciprocal plots of initial velocity vs. substrate concentration intercepted the y-axis at the same point.\nThe data were fitted to the following equation: P=P0 +(vi -vf)/k+vf t+(vf -vi)e^-kt /k. P is the concentration of product at time t, vi is the initial velocity, vf is the final steady state velocity, k is the first order rate constant and P0 is the concentration of product at t=0. Values of Ki (initial) and Ki (final) were then determined from plots of velocity^-1 vs. concentration of inhibitor using the method described by Dixon, Biochem. J. 55:170 (1953)."}, "neutrophil elastase [5]": {"biological_target": "T2, neutrophil elastase", "experiment": "Inhibition of neutrophil elastase, additional peptide inhibitors preincubated in phosphate buffer (Table 3)", "type": "biochemical", "design": "Neutrophil elastase was prepared by the procedure described by Baugh. et al; from tissue", "conditions": "Conc. 1.0 × 10^-7 M", "experimental": "Additional peptide inhibitors were evaluated by a procedure similar to that described above. Stock solutions of inhibitors (1.00 mM) were prepared in dimethylsulfoxide and compounds were diluted to 0.10 mM with […], pH 7.5, yielding the free boronic acid. After incubation for one hour at about 23°, inhibitors were added to assay solutions (2.00 mL) consisting of […] MeOSuc-Ala-AlaProVal-p-nitroanilide in 0.10M Hepes buffer, pH 7.5, containing 0.50M NaCl. Assays were initiated by addition of 0.50 μg neutrophil elastase. Control assays without inhibitor indicated an initial velocity of 0.0195 min^-1. The value \"k\" in Table 3, below, is an estimate of the first order rate constant for time-dependent inhibition, as described above for MeOSuc-AlaAlaPro-Boroval-OH (Table 1)."}, "[6]": {"conditions": "hamster, in vivo", "quoted_text": "Plasma, 5 μL, containing various concentrations of inhibitor, or a dilution thereof, was incubated with 10 μL of a stock solution of 1.15×10^-5 M pancreatic elastase, in a final volume of 0.40 mL 0.10M Hepes buffer, pH 7.5, containing 0.5M NaCl at 25°. After 5 minutes incubation, 1.60 mL additional buffer and 20 μL of a 0.20M MeOSuc-AlaAlaPro-Val-pNA solution in dimethylsulfoxide was added and the increase in absorbance at 405 nm monitored. Levels of inhibitor were determined from a standard curve of % activity vs. inhibitor concentration.\nFIG. 1 illustrates results of experiments in which hamsters, 50 days old, weighing 80-90 g, were administered MeOSu-AlaAlaPro-Boroval-pinacol in 1.0 mL saline at intraperitoneal dosage levels of 400, 200 and 100 mg/kg. At the indicated time intervals, blood samples (50-100 μL) were withdrawn by cardiac puncture from animals lightly anesthetized with ether, and elastase inhibitor levels determined. Normal plasma EIC is 14 μM."}, "α-chymotrypsin": {"biological_target": "T3, α-chymotrypsin (Bos taurus, UniProt P00766)", "T3 construct": "purchased", "conditions": "competitive inhibitor; Lindquist et al.; cited from earlier work"}, "[7]": {"system": "experimentally-induced emphysema in hamsters", "conditions": "intraperitoneally; cited from earlier work"}, "neutrophil elastase [8]": {"biological_target": "T2, neutrophil elastase", "conditions": "cited from earlier work"}, "emphysema in mice": {"system": "emphysema in mice", "conditions": "cited from earlier work"}, "hamsters": {"system": "hamsters", "conditions": "intratracheal administration; cited from earlier work"}}, "note": "Read-outs that look alike come from different tables or passages of the source.", "data": [{"molecule": "CC(=O)N[C@@H](Cc1ccccc1)B(O)O", "note": "[(R)-1-acetamido-2-phenylethaneboronic acid]", "values": [{"measurement": "Ki", "setting": "chymotrypsin", "value": 4000, "unit": "nM"}]}, {"molecule": "CC(C)(C)OC(=O)N[C@@H](Cc1ccccc1)C(=O)N1CCC[C@H]1C(=O)N[C@@H](Cc1ccccc1)B1OC(C)(C)C(C)(C)O1", "note": "[Boc--Phe--Pro--Borophe--pinacol, Boc-PhePro-Borophe-pinacol]", "values": [{"measurement": "Activity % of Control", "setting": "Bovine α-chymotrypsin", "value": "69 % of Control"}, {"measurement": "Activity % of Control", "setting": "[1]; 0.5 min", "value": "69.1 % of Control"}, {"measurement": "Activity % of Control", "setting": "[1]; 4.0 min", "value": "21 % of Control"}, {"measurement": "% Activity", "setting": "neutrophil elastase [2]; 0.5 min", "value": 42, "unit": "%"}, {"measurement": "% Activity", "setting": "neutrophil elastase [2]; 2 min", "value": 23, "unit": "%"}, {"measurement": "% Activity", "setting": "neutrophil elastase [2]; 4 min", "value": 17, "unit": "%"}]}, {"molecule": "COC(=O)CCC(=O)N[C@@H](C)C(=O)N[C@@H](C)C(=O)N1CCC[C@H]1C(=O)NC(B(O)O)C(C)C", "note": "(stereo partly drawn) [MeOSuc--Ala--Ala--Pro--Boroval--OH, MeOSuc-AlaAlaPro-Boroval-OH]", "values": [{"measurement": "% Activity, Plasma + Inhibitor", "setting": "[3]; t = 0 hr.", "value": 18.5, "unit": "%"}, {"measurement": "% Activity, Plasma + Inhibitor", "setting": "[3]; t = 48 hr.", "value": 17, "unit": "%"}, {"measurement": "Ki", "setting": "neutrophil elastase [4]; initial velocity studies, Lineweaver and Burk, inhibitor 200 nM, read-out: Ki Initial", "value": 150, "unit": "nM"}, {"measurement": "Ki", "setting": "neutrophil elastase [4]; progressive inhibition, Dixon plot, t = 0, inhibitor 30-300 nM, read-out: Ki Initial", "value": 91, "unit": "nM"}, {"measurement": "Ki", "setting": "neutrophil elastase [4]; progressive inhibition, Dixon plot, t = infinity, equilibrium, read-out: Ki Final", "value": 6.2, "unit": "nM"}, {"measurement": "% Initial Activity", "setting": "neutrophil elastase [5]", "value": 61, "unit": "%"}, {"measurement": "k, first order rate constant for time-dependent inhibition", "setting": "neutrophil elastase [5]", "value": 0.27, "unit": "min⁻¹"}]}, {"molecule": "COC(=O)CCC(=O)N[C@@H](C)C(=O)N[C@@H](C)C(=O)N1CCC[C@H]1C(=O)NC(B1OC(C)(C)C(C)(C)O1)C(C)C", "note": "(stereo partly drawn) [MeOSuc--Ala--Ala--Pro--Boroval--pinacol, MeOSuc-AlaAlaPro-Boroval-pinacol]", "values": [{"measurement": "elevation of plasma EIC", "setting": "[6]", "value": "at least 10 fold"}]}, {"molecule": "O=C(NCB(O)O)c1ccccc1", "note": "[N-benzoylaminomethaneboronic acid]", "values": [{"measurement": "Ki", "setting": "α-chymotrypsin", "value": "1000 to 4000", "unit": "nM"}]}, {"molecule": "N-acetyl-L-alanyl-L-alanyl-L-prolyl-L-alanine chloromethyl ketone [Ac-Ala-Ala-Pro-AlaCH2 Cl]", "values": [{"measurement": "block of experimentally-induced emphysema", "setting": "[7]", "value": "effectively block experimentally-induced emphysema"}]}, {"molecule": "N-methoxysuccinyl-L-alanyl-L-alanyl-L-prolyl-L-valine chloromethyl ketone [MeOSuc-Ala-Ala-Pro-ValCH2 Cl]", "values": [{"measurement": "concentration exhibiting inhibitory activity", "setting": "neutrophil elastase [8]", "value": 25, "unit": "µM"}, {"measurement": "effectiveness", "setting": "emphysema in mice; administered more than fifteen minutes prior to intrapulmonary instillation of elastase", "value": "ineffective"}, {"measurement": "treatment of emphysema", "setting": "emphysema in mice; given orally", "value": "effective agent in the treatment of emphysema"}]}, {"molecule": "N-succinyl-L-alanyl-L-alanyl-L-prolyl-L-valine chloromethyl ketone [Suc-Ala-Ala-Pro-ValCH2 Cl]", "values": [{"measurement": "effectiveness", "setting": "hamsters", "value": "effective"}]}]}
